# Reference: PubChem BioAssay AID1963844 (Molecular Pharmacology Branch, DTP, NCI, 2024)
# pIC50: −log10 of the molar value.
# Test system: 422866-222-R5-J1-PDC complex spheroid viability
# Test: Anticancer human tumor 422866-222-R5-J1-PDC patient-derived pancreatic adenocarcinoma cell line growth inhibition [POLQ]
# Settings: for pIC50: curve of first compound; for viability, T/C: stronger effect = lower value
# Outline: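 Growth inhibition in 3D: complex spheroids (tumor PDC, HUVEC, MSC) treated with POLQ inhibitor combinations; where Cmax unknown, highest tested concentration 10 microM, except SN-38 at 1 microM.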
# [1] = second compound 0.0316 µM, first compound 0.0316 µM
# [2] = second compound 0.0316 µM, first compound 0.1 µM
# [3] = second compound 0.0316 µM, first compound 0.316 µM
# [4] = second compound 0.0316 µM, first compound 1 µM
# [5] = second compound 0.0316 µM, first compound 3.16 µM
# [6] = second compound 0.0316 µM, first compound 10 µM
# [7] = second compound 0.1 µM, first compound 0.0316 µM
# [8] = second compound 0.1 µM, first compound 0.1 µM
# [9] = second compound 0.1 µM, first compound 0.316 µM
# [10] = second compound 0.1 µM, first compound 1 µM
# [11] = second compound 0.1 µM, first compound 3.16 µM
# [12] = second compound 0.1 µM, first compound 10 µM
# [13] = second compound 0.316 µM, first compound 0.0316 µM
# [14] = second compound 0.316 µM, first compound 0.1 µM
# [15] = second compound 0.316 µM, first compound 0.316 µM
# [16] = second compound 0.316 µM, first compound 1 µM
# [17] = second compound 0.316 µM, first compound 3.16 µM
# [18] = second compound 0.316 µM, first compound 10 µM
# [19] = second compound 1 µM, first compound 0.0316 µM
# [20] = second compound 1 µM, first compound 0.1 µM
# [21] = second compound 1 µM, first compound 0.316 µM
# [22] = second compound 1 µM, first compound 1 µM
# [23] = second compound 1 µM, first compound 3.16 µM
# [24] = second compound 1 µM, first compound 10 µM
# [25] = second compound 3.16 µM, first compound 0.0316 µM
# [26] = second compound 3.16 µM, first compound 0.1 µM
# [27] = second compound 3.16 µM, first compound 0.316 µM
# [28] = second compound 3.16 µM, first compound 1 µM
# [29] = second compound 3.16 µM, first compound 3.16 µM
# [30] = second compound 3.16 µM, first compound 10 µM
# [31] = second compound 10 µM, first compound 0.0316 µM
# [32] = second compound 10 µM, first compound 0.1 µM
# [33] = second compound 10 µM, first compound 0.316 µM
# [34] = second compound 10 µM, first compound 1 µM
# [35] = second compound 10 µM, first compound 3.16 µM
# [36] = second compound 10 µM, first compound 10 µM
# [37] = second compound 0.0316 µM, first compound 0.00316 µM
# [38] = second compound 0.0316 µM, first compound 0.01 µM
# [39] = second compound 0.1 µM, first compound 0.00316 µM
# [40] = second compound 0.1 µM, first compound 0.01 µM
# [41] = second compound 0.316 µM, first compound 0.00316 µM
# [42] = second compound 0.316 µM, first compound 0.01 µM
# [43] = second compound 1 µM, first compound 0.00316 µM
# [44] = second compound 1 µM, first compound 0.01 µM
# [45] = second compound 3.16 µM, first compound 0.00316 µM
# [46] = second compound 3.16 µM, first compound 0.01 µM
# [47] = second compound 10 µM, first compound 0.00316 µM
# [48] = second compound 10 µM, first compound 0.01 µM
# 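Further: spheroids exposed to compounds for one week before readout.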
# 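Wherever viability, T/C is given: percent of DMSO vehicle wells luminescence so 100% = untreated viability.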
compound,measurement,setting,value
CCCS(=O)(=O)Nc1ccc(F)c(C(=O)c2c[nH]c3ncc(-c4ccc(Cl)cc4)cc23)c1F + COC1C(OC(N)=O)C(O)C(Oc2ccc3c(O)c(NC(=O)c4ccc(O)c(CC=C(C)C)c4)c(=O)oc3c2C)OC1(C)C,pIC50,second compound 0.0316 µM,< 5.00
same,pIC50,second compound 0.1 µM,< 5.00
same,pIC50,second compound 0.316 µM,< 5.00
same,pIC50,second compound 1 µM,< 5.00
same,pIC50,second compound 3.16 µM,< 5.00
same,pIC50,second compound 10 µM,< 5.00
same,"viability, T/C",[1],96.1%
same,"viability, T/C",[2],129%
same,"viability, T/C",[3],132%
same,"viability, T/C",[4],162%
same,"viability, T/C",[5],236%
same,"viability, T/C",[6],99%
same,"viability, T/C",[7],119%
same,"viability, T/C",[8],118%
same,"viability, T/C",[9],143%
same,"viability, T/C",[10],149%
same,"viability, T/C",[11],198%
same,"viability, T/C",[12],86.6%
same,"viability, T/C",[13],98.2%
same,"viability, T/C",[14],97.8%
same,"viability, T/C",[15],129%
same,"viability, T/C",[16],177%
same,"viability, T/C",[17],173%
same,"viability, T/C",[18],107%
same,"viability, T/C",[19],101%
same,"viability, T/C",[20],114%
same,"viability, T/C",[21],129%
same,"viability, T/C",[22],167%
same,"viability, T/C",[23],217%
same,"viability, T/C",[24],90.6%
same,"viability, T/C",[25],101%
same,"viability, T/C",[26],115%
same,"viability, T/C",[27],129%
same,"viability, T/C",[28],173%
same,"viability, T/C",[29],195%
same,"viability, T/C",[30],111%
same,"viability, T/C",[31],93.9%
same,"viability, T/C",[32],121%
same,"viability, T/C",[33],145%
same,"viability, T/C",[34],161%
same,"viability, T/C",[35],198%
same,"viability, T/C",[36],93.4%
CCc1c2c(nc3ccc(O)cc13)-c1cc3c(c(=O)n1C2)COC(=O)[C@]3(O)CC + COC1C(OC(N)=O)C(O)C(Oc2ccc3c(O)c(NC(=O)c4ccc(O)c(CC=C(C)C)c4)c(=O)oc3c2C)OC1(C)C,pIC50,second compound 0.0316 µM,> 8.50
same,pIC50,second compound 0.1 µM,> 8.50
same,pIC50,second compound 0.316 µM,> 8.50
same,pIC50,second compound 1 µM,> 8.50
same,pIC50,second compound 3.16 µM,> 8.50
same,pIC50,second compound 10 µM,> 8.50
same,"viability, T/C",[37],44.1%
same,"viability, T/C",[38],34.4%
same,"viability, T/C",[1],33.4%
same,"viability, T/C",[2],30.8%
same,"viability, T/C",[3],28.7%
same,"viability, T/C",[4],19.7%
same,"viability, T/C",[39],41.3%
same,"viability, T/C",[40],34.8%
same,"viability, T/C",[7],32%
same,"viability, T/C",[8],30.6%
same,"viability, T/C",[9],34.6%
same,"viability, T/C",[10],18.6%
same,"viability, T/C",[41],41.1%
same,"viability, T/C",[42],35.9%
same,"viability, T/C",[13],30.9%
same,"viability, T/C",[14],29.6%
same,"viability, T/C",[15],32.9%
same,"viability, T/C",[16],16.7%
same,"viability, T/C",[43],41.8%
same,"viability, T/C",[44],30.9%
same,"viability, T/C",[19],30.5%
same,"viability, T/C",[20],33.8%
same,"viability, T/C",[21],32.6%
same,"viability, T/C",[22],19%
same,"viability, T/C",[45],41%
same,"viability, T/C",[46],34.8%
same,"viability, T/C",[25],36%
same,"viability, T/C",[26],32.7%
same,"viability, T/C",[27],34.3%
same,"viability, T/C",[28],22.5%
same,"viability, T/C",[47],39.4%
same,"viability, T/C",[48],34.2%
same,"viability, T/C",[31],31.6%
same,"viability, T/C",[32],32.1%
same,"viability, T/C",[33],31.1%
same,"viability, T/C",[34],19.9%
CNCc1ccc(-c2[nH]c3cc(F)cc4c3c2CCNC4=O)cc1 + COC1C(OC(N)=O)C(O)C(Oc2ccc3c(O)c(NC(=O)c4ccc(O)c(CC=C(C)C)c4)c(=O)oc3c2C)OC1(C)C,pIC50,second compound 0.0316 µM,< 5.00
same,pIC50,second compound 0.1 µM,< 5.00
same,pIC50,second compound 0.316 µM,< 5.00
same,pIC50,second compound 1 µM,< 5.00
same,pIC50,second compound 3.16 µM,< 5.00
same,pIC50,second compound 10 µM,< 5.00
same,"viability, T/C",[1],96.6%
same,"viability, T/C",[2],97.2%
same,"viability, T/C",[3],75.3%
same,"viability, T/C",[4],97.3%
same,"viability, T/C",[5],83.4%
same,"viability, T/C",[6],105%
same,"viability, T/C",[7],124%
same,"viability, T/C",[8],109%
same,"viability, T/C",[9],104%
same,"viability, T/C",[10],99.1%
same,"viability, T/C",[11],76.7%
same,"viability, T/C",[12],95%
same,"viability, T/C",[13],99.5%
same,"viability, T/C",[14],101%
same,"viability, T/C",[15],98.2%
same,"viability, T/C",[16],83%
same,"viability, T/C",[17],92%
same,"viability, T/C",[18],95.1%
same,"viability, T/C",[19],116%
same,"viability, T/C",[20],104%
same,"viability, T/C",[21],101%
same,"viability, T/C",[22],92.9%
same,"viability, T/C",[23],96.8%
same,"viability, T/C",[24],99%
same,"viability, T/C",[25],93%
same,"viability, T/C",[26],101%
same,"viability, T/C",[27],92.9%
same,"viability, T/C",[28],71.7%
same,"viability, T/C",[29],83.5%
same,"viability, T/C",[30],99%
same,"viability, T/C",[31],96.8%
same,"viability, T/C",[32],102%
same,"viability, T/C",[33],100%
same,"viability, T/C",[34],90%
same,"viability, T/C",[35],103%
same,"viability, T/C",[36],90.2%
COc1cccc(OCCCN)c1-c1cc(Nc2cnc(C#N)cn2)n[nH]1 + COC1C(OC(N)=O)C(O)C(Oc2ccc3c(O)c(NC(=O)c4ccc(O)c(CC=C(C)C)c4)c(=O)oc3c2C)OC1(C)C,pIC50,second compound 0.0316 µM,8.34
same,pIC50,second compound 0.1 µM,8.38
same,pIC50,second compound 0.316 µM,> 8.50
same,pIC50,second compound 1 µM,> 8.50
same,pIC50,second compound 3.16 µM,8.29
same,pIC50,second compound 10 µM,> 8.50
same,"viability, T/C",[37],55.9%
same,"viability, T/C",[38],37.4%
same,"viability, T/C",[1],33.7%
same,"viability, T/C",[2],30.7%
same,"viability, T/C",[3],26.7%
same,"viability, T/C",[4],34.3%
same,"viability, T/C",[39],53%
same,"viability, T/C",[40],42.1%
same,"viability, T/C",[7],32.3%
same,"viability, T/C",[8],29.5%
same,"viability, T/C",[9],26.8%
same,"viability, T/C",[10],42.6%
same,"viability, T/C",[41],48.5%
same,"viability, T/C",[42],39.9%
same,"viability, T/C",[13],28.5%
same,"viability, T/C",[14],37.7%
same,"viability, T/C",[15],32.1%
same,"viability, T/C",[16],35.1%
same,"viability, T/C",[43],55.9%
same,"viability, T/C",[44],39.3%
same,"viability, T/C",[19],32.7%
same,"viability, T/C",[20],37.3%
same,"viability, T/C",[21],32.7%
same,"viability, T/C",[22],47%
same,"viability, T/C",[45],54.7%
same,"viability, T/C",[46],43%
same,"viability, T/C",[25],41.4%
same,"viability, T/C",[26],30.1%
same,"viability, T/C",[27],41.2%
same,"viability, T/C",[28],32.8%
same,"viability, T/C",[47],54.2%
same,"viability, T/C",[48],38.7%
same,"viability, T/C",[31],39.1%
same,"viability, T/C",[32],38%
same,"viability, T/C",[33],30.9%
same,"viability, T/C",[34],38.4%
